According to PMC4032265 (PLoS ONE, 2014):
Read-outs that look alike come from different tables or passages of the source.

Key:
α1A adrenergic receptor = target: T1, α1A adrenergic receptor (Homo sapiens, UniProt P35348); test: PDSP radioligand binding, α1A; details: read-out: % inhibition at 10 µM
T1 sequence (P35348 1-466): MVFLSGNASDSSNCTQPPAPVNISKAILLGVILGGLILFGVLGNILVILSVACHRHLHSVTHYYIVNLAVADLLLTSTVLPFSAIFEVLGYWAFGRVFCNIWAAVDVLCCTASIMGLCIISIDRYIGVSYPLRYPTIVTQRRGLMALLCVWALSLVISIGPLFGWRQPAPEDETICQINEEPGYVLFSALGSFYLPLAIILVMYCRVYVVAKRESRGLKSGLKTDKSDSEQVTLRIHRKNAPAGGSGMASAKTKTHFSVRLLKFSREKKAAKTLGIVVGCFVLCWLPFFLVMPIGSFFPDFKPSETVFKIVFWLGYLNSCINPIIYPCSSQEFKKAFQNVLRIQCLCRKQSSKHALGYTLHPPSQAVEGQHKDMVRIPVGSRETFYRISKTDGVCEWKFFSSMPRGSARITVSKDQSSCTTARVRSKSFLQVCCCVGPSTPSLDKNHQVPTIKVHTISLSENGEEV

α1D adrenergic receptor = target: T2, α1D adrenergic receptor (Homo sapiens, UniProt P25100); test: PDSP radioligand binding, α1D; details: read-out: % inhibition at 10 µM
T2 sequence (P25100 1-572): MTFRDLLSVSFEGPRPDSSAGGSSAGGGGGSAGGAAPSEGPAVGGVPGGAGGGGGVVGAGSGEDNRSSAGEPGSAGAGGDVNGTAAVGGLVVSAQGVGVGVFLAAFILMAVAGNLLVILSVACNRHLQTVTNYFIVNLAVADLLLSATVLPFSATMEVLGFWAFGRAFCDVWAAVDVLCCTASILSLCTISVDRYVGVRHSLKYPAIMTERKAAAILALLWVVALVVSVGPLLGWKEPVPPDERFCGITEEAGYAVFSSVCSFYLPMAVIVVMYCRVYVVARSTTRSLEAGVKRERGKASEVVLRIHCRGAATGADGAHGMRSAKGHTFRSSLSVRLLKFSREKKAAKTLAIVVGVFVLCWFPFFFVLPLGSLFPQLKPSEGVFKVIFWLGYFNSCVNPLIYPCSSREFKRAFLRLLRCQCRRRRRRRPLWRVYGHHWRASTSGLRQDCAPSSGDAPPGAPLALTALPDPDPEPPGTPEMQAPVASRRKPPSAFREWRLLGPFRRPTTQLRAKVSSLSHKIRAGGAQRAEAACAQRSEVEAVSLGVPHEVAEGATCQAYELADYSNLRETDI

[1] = target: M3 muscarinic acetylcholine receptor (Homo sapiens, UniProt P20309); test: PDSP radioligand binding, M3; details: read-out: % inhibition at 10 µM
D5 dopaminergic receptor = D5 dopaminergic receptor (Homo sapiens, UniProt P21918); test: PDSP radioligand binding, D5; details: read-out: % inhibition at 10 µM
[2] = target: H1 histaminergic receptor (Homo sapiens, UniProt P35367); test: PDSP radioligand binding, H1; details: read-out: % inhibition at 10 µM
5HT3 ion channels = target: T3, 5HT3 ion channels (Homo sapiens, UniProt P46098); test: PDSP radioligand binding, 5HT3 ion channel; details: for inhibition at 10 µM: read-out: % inhibition at 10 µM
T3 sequence (P46098 24-478): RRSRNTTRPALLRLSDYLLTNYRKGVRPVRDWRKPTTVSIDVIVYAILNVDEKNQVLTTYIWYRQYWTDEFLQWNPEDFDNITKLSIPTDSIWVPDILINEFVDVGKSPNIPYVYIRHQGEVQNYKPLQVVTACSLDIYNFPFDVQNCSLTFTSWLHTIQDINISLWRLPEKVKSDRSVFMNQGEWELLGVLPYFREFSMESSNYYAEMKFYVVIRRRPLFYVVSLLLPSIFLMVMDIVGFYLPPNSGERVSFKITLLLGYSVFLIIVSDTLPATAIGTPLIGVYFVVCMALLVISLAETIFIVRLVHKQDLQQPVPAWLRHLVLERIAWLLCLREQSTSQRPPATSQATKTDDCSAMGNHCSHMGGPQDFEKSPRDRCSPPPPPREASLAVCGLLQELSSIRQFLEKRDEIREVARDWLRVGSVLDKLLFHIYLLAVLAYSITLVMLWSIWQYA

D2 dopaminergic receptor = D2 dopaminergic receptor (Homo sapiens, UniProt P14416); test: PDSP radioligand binding, D2; details: read-out: % inhibition at 10 µM
[3] = target: 5HT1B serotonergic receptor (Homo sapiens, UniProt P28222); test: PDSP radioligand binding, 5HT1B; details: read-out: % inhibition at 10 µM
[4] = target: 5HT1E serotonergic receptor (Homo sapiens, UniProt P28566); test: PDSP radioligand binding, 5HT1E; details: read-out: % inhibition at 10 µM
α1B adrenergic receptor = target: T4, α1B adrenergic receptor (Homo sapiens, UniProt P35368); test: PDSP radioligand binding, α1B; details: read-out: % inhibition at 10 µM
T4 sequence (P35368 1-520): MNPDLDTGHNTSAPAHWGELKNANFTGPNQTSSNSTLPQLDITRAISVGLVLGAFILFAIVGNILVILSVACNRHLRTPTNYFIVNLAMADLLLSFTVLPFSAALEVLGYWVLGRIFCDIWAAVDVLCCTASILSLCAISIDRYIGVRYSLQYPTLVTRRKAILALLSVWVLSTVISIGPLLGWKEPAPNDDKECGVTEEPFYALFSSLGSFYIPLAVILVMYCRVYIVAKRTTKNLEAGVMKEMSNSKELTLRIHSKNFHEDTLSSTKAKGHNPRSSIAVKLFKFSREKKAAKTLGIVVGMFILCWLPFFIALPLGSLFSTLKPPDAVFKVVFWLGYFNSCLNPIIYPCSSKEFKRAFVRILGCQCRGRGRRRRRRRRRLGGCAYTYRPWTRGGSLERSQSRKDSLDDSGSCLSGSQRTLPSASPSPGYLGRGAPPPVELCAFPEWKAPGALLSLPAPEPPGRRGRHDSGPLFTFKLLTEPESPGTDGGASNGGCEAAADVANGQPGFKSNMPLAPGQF

GABAA receptor = test: PDSP radioligand binding, GABAA; details: single concentration 10 µM
[5] = target: peripheral benzodiazepine receptor (PBR) (Rattus norvegicus, UniProt P16257); test: PDSP radioligand binding, PBR; details: for inhibition at 10 µM: read-out: % inhibition at 10 µM; for Ki: full curves, n = 2

Chain of D2 dopaminergic receptor (P14416 whole entry): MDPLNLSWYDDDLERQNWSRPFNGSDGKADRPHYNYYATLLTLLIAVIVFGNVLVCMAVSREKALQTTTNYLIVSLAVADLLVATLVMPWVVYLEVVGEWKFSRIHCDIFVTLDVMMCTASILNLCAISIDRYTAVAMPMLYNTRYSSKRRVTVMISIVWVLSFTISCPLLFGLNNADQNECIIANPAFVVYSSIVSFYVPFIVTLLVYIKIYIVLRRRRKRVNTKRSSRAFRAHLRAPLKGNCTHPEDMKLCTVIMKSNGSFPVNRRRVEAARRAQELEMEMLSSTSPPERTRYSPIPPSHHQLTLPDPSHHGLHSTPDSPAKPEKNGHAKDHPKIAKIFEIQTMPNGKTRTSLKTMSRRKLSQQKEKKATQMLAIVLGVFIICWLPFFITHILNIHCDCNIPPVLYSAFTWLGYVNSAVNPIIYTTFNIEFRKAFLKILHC
Chain of 5HT1E serotonergic receptor (P28566 whole entry): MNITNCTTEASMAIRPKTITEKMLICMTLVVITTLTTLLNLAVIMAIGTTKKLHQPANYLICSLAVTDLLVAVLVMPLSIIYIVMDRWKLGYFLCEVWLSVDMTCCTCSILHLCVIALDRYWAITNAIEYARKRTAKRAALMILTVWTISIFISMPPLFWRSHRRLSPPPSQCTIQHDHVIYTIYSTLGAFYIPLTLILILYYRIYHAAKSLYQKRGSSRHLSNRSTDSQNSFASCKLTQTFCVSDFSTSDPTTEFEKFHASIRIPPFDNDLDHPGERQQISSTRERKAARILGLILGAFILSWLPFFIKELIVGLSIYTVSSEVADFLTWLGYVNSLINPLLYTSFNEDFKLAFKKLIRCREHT
Chain of M3 muscarinic acetylcholine receptor (P20309 whole entry): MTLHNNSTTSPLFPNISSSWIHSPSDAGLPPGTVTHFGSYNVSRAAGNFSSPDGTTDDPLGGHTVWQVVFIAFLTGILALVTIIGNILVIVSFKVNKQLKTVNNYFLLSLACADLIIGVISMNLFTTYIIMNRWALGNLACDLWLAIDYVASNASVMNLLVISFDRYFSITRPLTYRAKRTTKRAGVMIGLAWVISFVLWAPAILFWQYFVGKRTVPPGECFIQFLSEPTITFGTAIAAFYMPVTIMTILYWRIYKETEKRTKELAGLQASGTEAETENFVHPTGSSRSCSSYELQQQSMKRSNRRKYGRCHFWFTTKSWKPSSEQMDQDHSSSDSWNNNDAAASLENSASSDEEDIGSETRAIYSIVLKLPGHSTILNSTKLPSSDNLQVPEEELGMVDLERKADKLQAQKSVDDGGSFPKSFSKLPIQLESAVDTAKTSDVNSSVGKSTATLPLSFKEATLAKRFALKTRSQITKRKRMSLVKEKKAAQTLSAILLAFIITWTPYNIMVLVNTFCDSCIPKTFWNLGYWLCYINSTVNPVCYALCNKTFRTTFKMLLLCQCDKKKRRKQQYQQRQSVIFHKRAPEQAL
Chain of H1 histaminergic receptor (P35367 whole entry): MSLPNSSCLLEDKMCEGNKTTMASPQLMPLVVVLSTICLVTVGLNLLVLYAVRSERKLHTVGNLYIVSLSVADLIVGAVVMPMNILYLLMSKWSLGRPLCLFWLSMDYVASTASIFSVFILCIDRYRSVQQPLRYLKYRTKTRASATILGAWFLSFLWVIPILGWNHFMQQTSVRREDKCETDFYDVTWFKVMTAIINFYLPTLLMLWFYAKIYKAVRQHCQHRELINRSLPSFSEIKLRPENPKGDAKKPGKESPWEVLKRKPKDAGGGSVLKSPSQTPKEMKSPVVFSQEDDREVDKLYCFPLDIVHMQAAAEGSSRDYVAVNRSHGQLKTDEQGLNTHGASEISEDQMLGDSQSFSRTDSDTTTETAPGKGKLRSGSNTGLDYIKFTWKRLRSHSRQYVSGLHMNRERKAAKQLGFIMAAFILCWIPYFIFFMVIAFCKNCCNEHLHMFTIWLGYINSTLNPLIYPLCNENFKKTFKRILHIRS
Chain of 5HT1B serotonergic receptor (P28222 whole entry): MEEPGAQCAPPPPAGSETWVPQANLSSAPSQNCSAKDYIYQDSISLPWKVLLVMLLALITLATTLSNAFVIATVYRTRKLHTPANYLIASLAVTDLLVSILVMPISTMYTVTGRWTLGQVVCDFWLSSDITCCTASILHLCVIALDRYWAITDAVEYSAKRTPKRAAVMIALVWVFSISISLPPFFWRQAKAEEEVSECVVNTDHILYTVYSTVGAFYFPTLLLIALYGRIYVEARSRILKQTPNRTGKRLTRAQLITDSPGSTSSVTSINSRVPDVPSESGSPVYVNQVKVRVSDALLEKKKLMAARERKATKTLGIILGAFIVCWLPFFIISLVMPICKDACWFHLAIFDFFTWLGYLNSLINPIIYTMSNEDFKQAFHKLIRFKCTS
Chain of D5 dopaminergic receptor (P21918 whole entry): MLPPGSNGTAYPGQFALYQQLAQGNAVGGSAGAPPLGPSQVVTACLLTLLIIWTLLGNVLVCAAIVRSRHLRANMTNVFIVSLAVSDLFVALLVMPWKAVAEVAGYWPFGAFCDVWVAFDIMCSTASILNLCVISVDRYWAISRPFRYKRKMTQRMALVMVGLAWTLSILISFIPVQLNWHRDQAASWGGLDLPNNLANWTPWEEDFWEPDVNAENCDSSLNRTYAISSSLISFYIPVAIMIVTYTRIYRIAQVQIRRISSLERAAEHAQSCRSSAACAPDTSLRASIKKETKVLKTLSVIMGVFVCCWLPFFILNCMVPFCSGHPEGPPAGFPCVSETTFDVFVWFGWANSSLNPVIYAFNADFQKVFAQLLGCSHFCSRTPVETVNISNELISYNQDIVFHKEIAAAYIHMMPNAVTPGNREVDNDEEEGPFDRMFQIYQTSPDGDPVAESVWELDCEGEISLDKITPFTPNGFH

Row | SMILES | % inhibition at 10 µM (GABAA receptor) [%] | inhibition at 10 µM (α1A adrenergic receptor; single concentration 10 µM) [%] | inhibition at 10 µM (α1D adrenergic receptor; single concentration 10 µM) [%] | inhibition at 10 µM ([1]; single concentration 10 µM) [%] | inhibition at 10 µM (D5 dopaminergic receptor; single concentration 10 µM) [%] | inhibition at 10 µM ([2]; single concentration 10 µM) [%] | inhibition at 10 µM (5HT3 ion channels; single concentration 10 µM) [%] | inhibition at 10 µM (D2 dopaminergic receptor; single concentration 10 µM) [%] | inhibition at 10 µM ([3]; single concentration 10 µM) [%] | inhibition at 10 µM ([4]; single concentration 10 µM) [%] | inhibition at 10 µM (α1B adrenergic receptor; single concentration 10 µM) [%] | Ki [5] [µM] | inhibition at 10 µM ([5]; single concentration 10 µM) [%] | also measured
1 | CNC(=O)[C@@]12C[C@@H]1[C@@H](n1cnc3c(NCc4cccc(Cl)c4)nc(C#Cc4ccc(F)c(F)c4)nc31)[C@H](O)[C@@H]2O [Compound 1] | 0 | – | – | – | – | – | – | – | – | – | – | – | – | inhibition at 10 µM (α1A adrenergic receptor): 10%; inhibition at 10 µM (α1D adrenergic receptor): 3%; inhibition at 10 µM [1]: 2%; inhibition at 10 µM (D5 dopaminergic receptor): 13%; inhibition at 10 µM [2]: 0%; inhibition at 10 µM (5HT3 ion channels): 3%; inhibition at 10 µM (D2 dopaminergic receptor): 0%; inhibition at 10 µM [3]: 0%; inhibition at 10 µM [4]: 12%; inhibition at 10 µM (α1B adrenergic receptor): 44%; inhibition at 10 µM [5]: 71%
2 | CNC(=O)[C@@]12C[C@@H]1[C@@H](n1cnc3c(NCc4cccc(Cl)c4)nc(C#Cc4ccc(F)cc4)nc31)[C@H](O)[C@@H]2O [Compound 2] | 0 | 7 | 6 | 6 | 19 | 0 | 26 | 0 | 0 | 0 | 1 | 0.253 ± 0.057 | 92 | –
3 | CNC(=O)[C@@]12C[C@@H]1[C@@H](n1cnc3c(NCc4cccc(Cl)c4)nc(C#Cc4ccccc4Cl)nc31)[C@H](O)[C@@H]2O [Compound 3] | 0 | 16 | 20 | 5 | 10 | 21 | 50 | 0 | 0 | 0 | 7 | 0.344 ± 0.149 | 87 | –
4 | CNC(=O)[C@@]12C[C@@H]1[C@@H](n1cnc3c(NCc4cccc(Cl)c4)nc(Cl)nc31)[C@H](O)[C@@H]2O [Compound 4] | 0 | 3 | 0 | 1 | 4 | 6 | 5 | 16 | 23 | 0 | 30 | – | 32 | –
5 | CNC(=O)[C@@]12C[C@@H]1[C@@H](n1cnc3c(NC)nc(C#Cc4ccc(F)c(F)c4)nc31)[C@H](O)[C@@H]2O [Compound 5] | 0 | 0 | 0 | 5 | 6 | 0 | 2 | 18 | 15 | 9 | 11 | – | 25 | –
6 | O[C@@H]1[C@H](O)[C@@H]2C[C@@H]2[C@H]1n1cnc2c(NCc3cccc(Cl)c3)nc(C#Cc3ccc(F)c(F)c3)nc21 [Compound 6] | – | 13 | 5 | 0 | 3 | 3 | 0 | 9 | 13 | 0 | 19 | 1.7 | 63 | –
7 | O[C@@H]1[C@H](O)[C@@H]2C[C@@H]2[C@H]1n1cnc2c(NCc3cccc(Cl)c3)ncnc21 [Compound 7] | 0 | 15 | 30 | 11 | 7 | 64 | 83 | 6 | 2 | 0 | 32 | – | 13 | Ki (5HT3 ion channels; full concentration-response curves, n = 3-6 unless noted): 3.26 ± 0.8 µM
8 | Fc1ccc(C#Cc2nc(NCc3cccc(Cl)c3)c3nc[nH]c3n2)cc1F [Compound 8] | 0 | 0 | 0 | 10 | 9 | 1 | 0 | 0 | 32 | 0 | 30 | – | 13 | –
9 | Clc1cccc(CNc2nc(Cl)nc3[nH]cnc23)c1 [Compound 9] | 8 | 26 | 0 | 0 | 0 | 4 | 28 | 0 | 6 | 0 | 0 | – | 8 | –
